Patent US8163740B2, “6-substituted benzoxazines” (Hoffmann-La Roche Inc., priority 2008, dated 2012)

What follows are compounds tested against recombinant human 5-HT5A receptor (Homo sapiens, UniProt P47898) (assay: [3H]LSD radioligand binding assay). Conditions: [3H]LSD (approximately 1 nM); membranes from HEK-EBNA cells transiently expressing 5-HT5A; Ki by Cheng-Prussoff equation; read-out: Ki.
Description: A [^3H]LSD radioligand binding assay was used to determine the affinity of the compounds for the recombinant human 5-HT5A receptor, in membranes from transiently (cDNA) expressed 5-HT5A receptors in Human Embryonic Kidney-EBNA (HEK-EBNA) cells. Assay buffer consisted of Tris (50 mM) buffer containing 1 mM EGTA, 10 mM MgCl2 (pH 7.4) and 10 μM pargyline. The binding assay was carried out in 96-well-plates in the presence of [^3H]LSD (approximately 1 nM), approximately 2 μg/well of membrane protein, and 0.5 mg of Ysi-poly-1-lysine SPA beads in a final volume of 200 μl of buffer. Non-specific binding was defined using methiothepin 2 μM. Compounds were tested at 10 concentrations. All assays were conducted in duplicate and repeated at least two times. Assay plates were incubated for 120 min at room temperature before centrifugation. Bound ligand was determined using a Packard Topcount scintillation counter. IC50 values were calculated using a non-linear curve fitting program and Ki values calculated using the Cheng-Prussoff equation.

Chain of recombinant human 5-HT5A receptor (P47898 whole entry): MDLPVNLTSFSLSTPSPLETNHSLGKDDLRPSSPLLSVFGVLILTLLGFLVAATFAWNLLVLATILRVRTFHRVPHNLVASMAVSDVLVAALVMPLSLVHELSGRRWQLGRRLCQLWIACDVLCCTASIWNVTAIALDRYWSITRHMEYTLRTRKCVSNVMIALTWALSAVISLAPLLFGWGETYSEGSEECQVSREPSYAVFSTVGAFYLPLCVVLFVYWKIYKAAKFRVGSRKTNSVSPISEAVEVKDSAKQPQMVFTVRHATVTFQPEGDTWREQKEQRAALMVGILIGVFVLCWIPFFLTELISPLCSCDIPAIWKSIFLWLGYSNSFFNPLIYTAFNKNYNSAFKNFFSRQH

SMILES | Ki
COc1cccc2c1C(NC1=Nc3ccc(NC(=O)C4CC4)cc3CO1)CC2 (racemic) [Example 25, rac-Cyclopropanecarboxylic acid [2-(7-methoxy-indan-1-ylamino)-4H-benzo[d][1,3]oxazin-6-yl]-amide] | 1.06 nM
COc1cccc2c1C(NC1=Nc3ccc(NS(=O)(=O)C4CC4)cc3CO1)CO2 (racemic) [Example 113, rac-Cyclopropanesulfonic acid [2-(4-methoxy-2,3-dihydro-benzofuran-3-ylamino)-4H-benzo[d][1,3]oxazin-6-yl]-amide] | 12.6 nM
COc1cccc2c1C(NC1=Nc3ccc(NS(=O)(=O)c4ccccc4)cc3CO1)CO2 (racemic) [Example 115, rac-N-[2-(4-Methoxy-2,3-dihydro-benzofuran-3-ylamino)-4H-benzo[d][1,3]oxazin-6-yl]-benzenesulfonamide] | 20.9 nM
COc1cccc2c1C(NC1=Nc3ccc(NS(=O)(=O)N4CCOCC4)cc3CO1)CC2 (racemic) [Example 63, rac-Morpholine-4-sulfonic acid [2-(7-methoxy-indan-1-ylamino)-4H-benzo[d][1,3]oxazin-6-yl]-amide] | 3.32 nM
O=C(CN1CCOCC1)Nc1ccc2c(c1)COC(N[C@@H]1CCc3ccccc31)=N2 [Example 37, N-[2-((R)-Indan-1-ylamino)-4H-benzo[d][1,3]oxazin-6-yl]-2-morpholin-4-yl-acetamide] | 8.74 nM
CN1CCN(CC(=O)Nc2ccc3c(c2)COC(Nc2cccc(C4CC4)c2)=N3)CC1 [Example 126, N-[2-(3-Cyclopropyl-phenylamino)-4H-benzo[d][1,3]oxazin-6-yl]-2-(4-methyl-piperazin-1-yl)-acetamide] | 37.7 nM
COc1cccc2c1C(NC1=Nc3ccc(Nc4cccc(C(F)(F)F)n4)cc3CO1)CC2 (racemic) [Example 80, rac-N^2-(7-Methoxy-indan-1-yl)-N^6-(6-trifluoromethyl-pyridin-2-yl)-4H-benzo[d][1,3]oxazine-2,6-diamine] | 4.26 nM
COc1cccc2c1C(NC1=Nc3ccc(NC(=O)CN4CCOCC4)cc3CO1)CO2 (racemic) [Example 13, rac-N-[2-(4-Methoxy-2,3-dihydro-benzofuran-3-ylamino)-4H-benzo[d][1,3]oxazin-6-yl]-2-morpholin-4-yl-acetamide] | 40.6 nM
FC(F)(F)c1cccc(Nc2ccc3c(c2)COC(N[C@@H]2CCc4ccccc42)=N3)n1 [Example 35, N^2-(R)-Indan-1-yl-N^6-(6-trifluoromethyl-pyridin-2-yl)-4H-benzo[d][1,3]oxazine-2,6-diamine] | 6.16 nM
COCC(=O)Nc1ccc2c(c1)COC(NC1CCc3cc(F)ccc31)=N2 (racemic) [Example 21, rac-N-[2-(5-Fluoro-indan-1-ylamino)-4H-benzo[d][1,3]oxazin-6-yl]-2-methoxy-acetamide] | 5.5 nM
c1c[nH]c(CNc2ccc3c(c2)COC(NC2CCCCCC2)=N3)n1 [Example 105, N^2-Cycloheptyl-N^6-(1H-imidazol-2-ylmethyl)-4H-benzo[d][1,3]oxazine-2,6-diamine] | 31.6 nM
CC(C)(O)CNCC(=O)Nc1ccc2c(c1)COC(N[C@@H]1CCCc3ccccc31)=N2 [Example 41, 2-(2-Hydroxy-2-methyl-propylamino)-N-{2-[(R)-(1,2,3,4-tetrahydro-naphthalen-1-yl)amino]-4H-benzo[d][1,3]oxazin-6-yl}-acetamide] | 33 nM
O=C(CN1CCSCC1)Nc1ccc2c(c1)COC(N[C@@H]1CCc3ccccc31)=N2 [Example 65, N-[2-((R)-Indan-1-ylamino)-4H-benzo[d][1,3]oxazin-6-yl]-2-thiomorpholin-4-yl-acetamide] | 7.62 nM
COc1cccc2c1C(NC1=Nc3ccc(Nc4nccc(C(F)(F)F)n4)cc3CO1)CO2 (racemic) [Example 60, rac-N^2-(4-Methoxy-2,3-dihydro-benzofuran-3-yl)-N^6-(4-trifluoromethyl-pyrimidin-2-yl)-4H-benzo[d][1,3]oxazine-2,6-diamine] | 12.5 nM
COc1cccc2c1C(NC1=Nc3ccc([N+](=O)[O-])cc3CO1)CO2 (racemic) [Example 5, rac-(4-Methoxy-2,3-dihydro-benzofuran-3-yl)-(6-nitro-4H-benzo[d][1,3]oxazin-2-yl)-amine] | 368 nM
COc1cccc2c1C(NC1=Nc3ccc(Nc4nnn(C(C)(C)C)n4)cc3CO1)CC2 (racemic) [Example 112, rac-N^6-(2-tert-Butyl-2H-tetrazol-5-yl)-N^2-(7-methoxy-indan-1-yl)-4H-benzo[d][1,3]oxazine-2,6-diamine] | 4.56 nM
CC(C)(O)CNCC(=O)Nc1ccc2c(c1)COC(N[C@@H]1CCc3ccccc31)=N2 [Example 68, 2-(2-Hydroxy-2-methyl-propylamino)-N-[2-((R)-indan-1-ylamino)-4H-benzo[d][1,3]oxazin-6-yl]-acetamide] | 9.23 nM

SMILES | Ki
c1cc(NC2=Nc3ccc(NCc4nccs4)cc3CO2)cc(C2CC2)c1 [Example 127, N^2-(3-Cyclopropyl-phenyl)-N^6-thiazol-2-ylmethyl-4H-benzo[d][1,3]oxazine-2,6-diamine] | 37.9 nM
COCC(=O)Nc1ccc2c(c1)COC(NC1CCc3cccc(OC)c31)=N2 (racemic) [Example 24, rac-2-Methoxy-N-[2-(7-methoxy-indan-1-ylamino)-4H-benzo[d][1,3]oxazin-6-yl]-acetamide] | 4.83 nM
COc1cccc2c1C(NC1=Nc3ccc(NS(=O)(=O)C4CC4)cc3CO1)CC2 (racemic) [Example 103, rac-Cyclopropanesulfonic acid [2-(7-methoxy-indan-1-ylamino)-4H-benzo[d][1,3]oxazin-6-yl]-amide] | 2.82 nM
COc1cccc2c1C(NC1=Nc3ccc(NC(=O)C4CC4)cc3CO1)CCC2 (racemic) [Example 23, rac-Cyclopropanecarboxylic acid [2-(8-methoxy-1,2,3,4-tetrahydro-naphthalen-1-ylamino)-4H-benzo[d][1,3]oxazin-6-yl]-amide] | 1.85 nM
COc1cccc2c1C(NC1=Nc3ccc(NC(=O)N(C)C4CCN(C(C)C)CC4)cc3CO1)CO2 (racemic) [Example 15, rac-1-(1-Isopropyl-piperidin-4-yl)-3-[2-(4-methoxy-2,3-dihydro-benzofuran-3-ylamino)-4H-benzo[d][1,3]oxazin-6-yl]-1-methyl-urea] | 6.08 nM
COc1cccc2c1C(NC1=Nc3ccc(NC(C)=O)cc3CO1)CC2 (racemic) [Example 52, rac-N-[2-(7-Methoxy-indan-1-ylamino)-4H-benzo[d][1,3]oxazin-6-yl]-acetamide] | 4.98 nM
O=S(=O)(Nc1ccc2c(c1)COC(N[C@@H]1CCc3ccccc31)=N2)c1ccccc1 [Example 83, N-[2-((R)-Indan-1-ylamino)-4H-benzo[d][1,3]oxazin-6-yl]-benzenesulfonamide] | 3.69 nM
O=C(CN1CCOCC1)Nc1ccc2c(c1)COC(NC1CCc3cc(F)ccc31)=N2 (racemic) [Example 56, rac-N-[2-(5-Fluoro-indan-1-ylamino)-4H-benzo[d][1,3]oxazin-6-yl]-2-morpholin-4-yl-acetamide] | 13 nM
CC(C)NC(=O)Nc1ccc2c(c1)COC(NC1CCCCCC1)=N2 [Example 154, 1-(2-Cycloheptylamino-4H-benzo[d][1,3]oxazin-6-yl)-3-isopropyl-urea] | 1.86 nM
O=C(CN1CCOCC1)Nc1ccc2c(c1)COC(N[C@@H]1CCCc3ccccc31)=N2 [Example 39, 2-Morpholin-4-yl-N-{2-[(R)-(1,2,3,4-tetrahydro-naphthalen-1-yl)amino]-4H-benzo[d][1,3]oxazin-6-yl}-acetamide] | 22.8 nM
COc1ccccc1CNC1=Nc2ccc(NC(=O)CN3CCN(CCO)CC3)cc2CO1 [Example 28, 2-[4-(2-Hydroxy-ethyl)-piperazin-1-yl]-N-[2-(2-methoxy-benzylamino)-4H-benzo[d][1,3]oxazin-6-yl]-acetamide] | 10.2 nM
c1ccc2c(c1)CC[C@H]2NC1=Nc2ccc(NCc3nccs3)cc2CO1 [Example 89, N^2—(R)-Indan-1-yl-N^6-thiazol-2-ylmethyl-4H-benzo[d][1,3]oxazine-2,6-diamine] | 1.18 nM
CN1CCN(S(=O)(=O)Nc2ccc3c(c2)COC(N[C@@H]2CCc4ccccc42)=N3)CC1 [Example 72, 4-Methyl-piperazine-1-sulfonic acid [2-((R)-indan-1-ylamino)-4H-benzo[d][1,3]oxazin-6-yl]-amide] | 28.6 nM
N#Cc1ccc2c(c1)COC(N[C@@H]1CCc3ccccc31)=N2 [Example 117, 2-((R)-Indan-1-ylamino)-4H-benzo[d][1,3]oxazine-6-carbonitrile] | 15.7 nM
CN1CCN(S(=O)(=O)Nc2ccc3c(c2)COC(N[C@@H]2CCCc4ccccc42)=N3)CC1 [Example 71, 4-Methyl-piperazine-1-sulfonic acid {2-[(R)-(1,2,3,4-tetrahydro-naphthalen-1-yl)amino]-4H-benzo[d][1,3]oxazin-6-yl}-amide] | 138 nM
CN(C)S(=O)(=O)Nc1ccc2c(c1)COC(N[C@@H]1CCc3ccccc31)=N2 [Example 27, N,N-(Dimethyl)-N′-{2-((R)-indan-1-ylamino)-4H-benzo[d][1,3]oxazin-6-yl}-sulfamide] | 2.36 nM
COCCNCC(=O)Nc1ccc2c(c1)COC(N[C@@H]1CCCc3ccccc31)=N2 [Example 40, 2-(2-Methoxy-ethylamino)-N-{2-[(R)-(1,2,3,4-tetrahydro-naphthalen-1-yl)amino]-4H-benzo[d][1,3]oxazin-6-yl}-acetamide] | 33 nM
